In ChEMBL document CHEMBL5291721, “A preclinical secondary pharmacology resource illuminates target-adverse drug reaction associations of marketed drugs” (Nat Commun, 2023) one finds AC50 data, which are given here for 10 compounds.

Some targets named below: D(1A) dopamine receptor (Homo sapiens, UniProt P21728); D(3) dopamine receptor (Homo sapiens, UniProt P35462); Histamine H3 receptor (Homo sapiens, UniProt Q9Y5N1).
In the next assay the target is T1, Progesterone receptor (Homo sapiens, UniProt P06401).
T1 sequence (P06401 whole entry): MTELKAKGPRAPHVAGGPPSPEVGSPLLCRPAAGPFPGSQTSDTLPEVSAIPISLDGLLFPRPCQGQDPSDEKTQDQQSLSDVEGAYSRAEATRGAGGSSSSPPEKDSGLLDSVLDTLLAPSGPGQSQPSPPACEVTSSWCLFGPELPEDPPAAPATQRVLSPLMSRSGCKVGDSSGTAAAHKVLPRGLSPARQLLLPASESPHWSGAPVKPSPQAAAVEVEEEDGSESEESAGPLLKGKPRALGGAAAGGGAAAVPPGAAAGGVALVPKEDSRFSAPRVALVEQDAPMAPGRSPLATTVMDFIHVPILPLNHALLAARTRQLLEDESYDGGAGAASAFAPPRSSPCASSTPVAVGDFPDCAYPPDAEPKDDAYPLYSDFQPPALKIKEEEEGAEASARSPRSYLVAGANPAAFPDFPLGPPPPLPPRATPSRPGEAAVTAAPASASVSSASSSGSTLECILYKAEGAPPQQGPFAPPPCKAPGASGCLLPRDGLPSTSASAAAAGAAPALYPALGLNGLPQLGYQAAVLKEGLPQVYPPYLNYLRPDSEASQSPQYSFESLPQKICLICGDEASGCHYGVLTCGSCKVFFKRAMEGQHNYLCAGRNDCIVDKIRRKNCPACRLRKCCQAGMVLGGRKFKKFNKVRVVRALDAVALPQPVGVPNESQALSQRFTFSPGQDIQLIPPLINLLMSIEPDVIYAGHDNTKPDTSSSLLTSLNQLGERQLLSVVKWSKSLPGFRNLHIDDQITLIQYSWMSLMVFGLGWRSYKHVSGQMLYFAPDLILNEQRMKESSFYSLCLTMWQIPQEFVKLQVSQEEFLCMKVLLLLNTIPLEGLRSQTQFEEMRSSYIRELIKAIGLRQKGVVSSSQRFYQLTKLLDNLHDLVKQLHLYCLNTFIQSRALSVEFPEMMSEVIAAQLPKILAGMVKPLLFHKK

For the next assay, the target named is Prothrombin (Homo sapiens, UniProt P00734). The class given is functional.
Assay [1] addresses Voltage-gated inwardly rectifying potassium channel KCNH2 (Homo sapiens, UniProt Q12809). In kind it is functional. The following applies: read-out: AC50.
Another assay addresses T2, Thromboxane A2 receptor (Homo sapiens, UniProt P21731).
T2 sequence (P21731 whole entry): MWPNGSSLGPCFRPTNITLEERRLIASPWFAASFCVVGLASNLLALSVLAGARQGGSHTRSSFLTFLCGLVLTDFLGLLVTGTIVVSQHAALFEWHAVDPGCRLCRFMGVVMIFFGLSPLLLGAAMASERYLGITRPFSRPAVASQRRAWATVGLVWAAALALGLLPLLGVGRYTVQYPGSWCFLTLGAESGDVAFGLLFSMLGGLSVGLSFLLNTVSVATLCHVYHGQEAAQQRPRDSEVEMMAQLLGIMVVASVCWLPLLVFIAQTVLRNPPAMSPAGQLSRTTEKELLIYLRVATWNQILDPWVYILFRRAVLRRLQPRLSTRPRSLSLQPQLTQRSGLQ
The class given is functional, cell-based.

The target of the next assay is T3, Adenosine receptor A3 (Homo sapiens, UniProt P0DMS8).
T3 sequence (P0DMS8 whole entry): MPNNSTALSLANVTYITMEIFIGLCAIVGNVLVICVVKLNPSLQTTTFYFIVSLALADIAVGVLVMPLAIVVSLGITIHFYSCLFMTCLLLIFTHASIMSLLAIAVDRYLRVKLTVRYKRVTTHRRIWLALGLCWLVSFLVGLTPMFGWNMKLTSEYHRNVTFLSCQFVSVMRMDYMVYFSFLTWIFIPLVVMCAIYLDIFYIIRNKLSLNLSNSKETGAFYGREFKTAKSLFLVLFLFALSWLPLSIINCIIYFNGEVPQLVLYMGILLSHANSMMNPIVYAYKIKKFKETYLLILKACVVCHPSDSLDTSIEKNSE

Assay [2] concerns the target T4, Alpha-1A adrenergic receptor (Homo sapiens, UniProt P35348).
T4 sequence (P35348 whole entry): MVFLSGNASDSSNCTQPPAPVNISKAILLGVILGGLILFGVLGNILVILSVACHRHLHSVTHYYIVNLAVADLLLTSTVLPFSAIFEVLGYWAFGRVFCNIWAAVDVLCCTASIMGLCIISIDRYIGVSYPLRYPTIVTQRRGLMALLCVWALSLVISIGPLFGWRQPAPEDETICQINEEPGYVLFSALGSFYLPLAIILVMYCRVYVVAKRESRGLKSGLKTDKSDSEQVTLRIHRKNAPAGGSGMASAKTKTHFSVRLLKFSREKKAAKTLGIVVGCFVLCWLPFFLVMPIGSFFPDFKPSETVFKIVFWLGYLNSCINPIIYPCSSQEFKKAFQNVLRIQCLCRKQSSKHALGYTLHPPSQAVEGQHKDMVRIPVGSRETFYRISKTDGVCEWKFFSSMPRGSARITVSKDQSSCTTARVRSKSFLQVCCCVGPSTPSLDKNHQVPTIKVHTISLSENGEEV
In kind it is functional, cell-based.

The target of assay [3] is Sodium-dependent serotonin transporter (Homo sapiens, UniProt P31645).
Assay [4] deals with T5, Amine oxidase [flavin-containing] A (Homo sapiens, UniProt P21397).
T5 sequence (P21397 whole entry): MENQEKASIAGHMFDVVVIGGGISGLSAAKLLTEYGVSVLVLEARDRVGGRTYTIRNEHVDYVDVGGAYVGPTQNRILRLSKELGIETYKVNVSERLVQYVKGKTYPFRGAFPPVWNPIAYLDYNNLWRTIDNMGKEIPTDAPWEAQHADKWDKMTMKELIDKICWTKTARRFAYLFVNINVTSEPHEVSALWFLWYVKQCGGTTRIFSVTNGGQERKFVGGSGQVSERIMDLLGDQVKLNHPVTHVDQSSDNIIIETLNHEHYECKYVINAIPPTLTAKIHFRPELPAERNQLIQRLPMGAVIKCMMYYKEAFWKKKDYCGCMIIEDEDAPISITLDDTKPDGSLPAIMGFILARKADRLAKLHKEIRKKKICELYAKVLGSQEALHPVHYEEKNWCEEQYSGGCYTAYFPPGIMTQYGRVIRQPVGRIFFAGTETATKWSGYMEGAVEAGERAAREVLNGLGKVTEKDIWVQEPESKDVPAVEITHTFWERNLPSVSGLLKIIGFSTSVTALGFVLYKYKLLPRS
The class given is functional.
Also: assay procedure not described here.

Sequence of D(1A) dopamine receptor (P21728 whole entry): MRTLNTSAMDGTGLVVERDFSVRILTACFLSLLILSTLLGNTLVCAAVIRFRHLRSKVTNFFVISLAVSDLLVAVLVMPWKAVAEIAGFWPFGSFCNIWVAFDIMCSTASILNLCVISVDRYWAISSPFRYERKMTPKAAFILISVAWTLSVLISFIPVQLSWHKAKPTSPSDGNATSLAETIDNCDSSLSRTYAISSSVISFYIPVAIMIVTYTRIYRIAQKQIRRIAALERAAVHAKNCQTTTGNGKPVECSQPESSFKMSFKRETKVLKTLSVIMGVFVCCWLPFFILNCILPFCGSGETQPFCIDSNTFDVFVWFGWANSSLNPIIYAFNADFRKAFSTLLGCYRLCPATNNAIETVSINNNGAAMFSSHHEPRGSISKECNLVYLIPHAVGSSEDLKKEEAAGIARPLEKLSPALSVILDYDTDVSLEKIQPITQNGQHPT
Sequence of D(3) dopamine receptor (P35462 whole entry): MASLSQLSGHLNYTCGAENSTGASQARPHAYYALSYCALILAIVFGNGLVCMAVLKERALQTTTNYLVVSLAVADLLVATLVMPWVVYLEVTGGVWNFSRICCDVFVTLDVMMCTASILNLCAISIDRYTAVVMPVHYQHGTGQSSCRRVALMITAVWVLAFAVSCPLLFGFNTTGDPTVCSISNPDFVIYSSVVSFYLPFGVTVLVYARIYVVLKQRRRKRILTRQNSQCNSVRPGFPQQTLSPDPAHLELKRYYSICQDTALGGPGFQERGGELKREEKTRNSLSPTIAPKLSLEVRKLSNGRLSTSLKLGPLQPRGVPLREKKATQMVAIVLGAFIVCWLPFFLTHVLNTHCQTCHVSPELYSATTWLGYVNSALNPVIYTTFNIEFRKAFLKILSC
Sequence of Histamine H3 receptor (Q9Y5N1 whole entry): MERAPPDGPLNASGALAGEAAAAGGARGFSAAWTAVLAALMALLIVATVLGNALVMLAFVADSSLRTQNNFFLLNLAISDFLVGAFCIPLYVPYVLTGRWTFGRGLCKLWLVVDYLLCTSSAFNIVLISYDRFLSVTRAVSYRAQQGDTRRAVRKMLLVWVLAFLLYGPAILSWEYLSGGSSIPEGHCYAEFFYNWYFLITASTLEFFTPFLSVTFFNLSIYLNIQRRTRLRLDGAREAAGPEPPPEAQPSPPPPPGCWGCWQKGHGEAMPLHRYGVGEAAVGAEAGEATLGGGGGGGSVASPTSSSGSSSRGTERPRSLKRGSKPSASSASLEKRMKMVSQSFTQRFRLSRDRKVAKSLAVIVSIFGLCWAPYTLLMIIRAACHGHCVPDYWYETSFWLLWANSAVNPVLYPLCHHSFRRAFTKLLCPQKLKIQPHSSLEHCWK
Sequence of Sodium-dependent serotonin transporter (P31645 whole entry): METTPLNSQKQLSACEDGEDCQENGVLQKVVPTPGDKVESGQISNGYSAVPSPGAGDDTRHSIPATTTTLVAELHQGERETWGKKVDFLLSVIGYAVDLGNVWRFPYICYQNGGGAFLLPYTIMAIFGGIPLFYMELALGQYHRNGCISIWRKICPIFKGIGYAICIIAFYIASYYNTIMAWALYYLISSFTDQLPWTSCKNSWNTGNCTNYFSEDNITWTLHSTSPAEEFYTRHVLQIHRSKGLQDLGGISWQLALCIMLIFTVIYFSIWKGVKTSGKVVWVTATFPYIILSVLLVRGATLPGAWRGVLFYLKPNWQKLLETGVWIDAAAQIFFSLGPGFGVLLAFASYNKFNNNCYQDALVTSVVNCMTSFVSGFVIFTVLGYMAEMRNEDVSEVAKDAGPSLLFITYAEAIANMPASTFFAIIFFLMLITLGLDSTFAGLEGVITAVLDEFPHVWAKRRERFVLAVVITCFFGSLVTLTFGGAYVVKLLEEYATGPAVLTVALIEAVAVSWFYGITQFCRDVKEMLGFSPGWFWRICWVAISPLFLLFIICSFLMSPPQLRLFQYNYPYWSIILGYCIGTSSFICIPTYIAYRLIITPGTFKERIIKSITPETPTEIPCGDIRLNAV
Sequence of Voltage-gated inwardly rectifying potassium channel KCNH2 (Q12809 whole entry): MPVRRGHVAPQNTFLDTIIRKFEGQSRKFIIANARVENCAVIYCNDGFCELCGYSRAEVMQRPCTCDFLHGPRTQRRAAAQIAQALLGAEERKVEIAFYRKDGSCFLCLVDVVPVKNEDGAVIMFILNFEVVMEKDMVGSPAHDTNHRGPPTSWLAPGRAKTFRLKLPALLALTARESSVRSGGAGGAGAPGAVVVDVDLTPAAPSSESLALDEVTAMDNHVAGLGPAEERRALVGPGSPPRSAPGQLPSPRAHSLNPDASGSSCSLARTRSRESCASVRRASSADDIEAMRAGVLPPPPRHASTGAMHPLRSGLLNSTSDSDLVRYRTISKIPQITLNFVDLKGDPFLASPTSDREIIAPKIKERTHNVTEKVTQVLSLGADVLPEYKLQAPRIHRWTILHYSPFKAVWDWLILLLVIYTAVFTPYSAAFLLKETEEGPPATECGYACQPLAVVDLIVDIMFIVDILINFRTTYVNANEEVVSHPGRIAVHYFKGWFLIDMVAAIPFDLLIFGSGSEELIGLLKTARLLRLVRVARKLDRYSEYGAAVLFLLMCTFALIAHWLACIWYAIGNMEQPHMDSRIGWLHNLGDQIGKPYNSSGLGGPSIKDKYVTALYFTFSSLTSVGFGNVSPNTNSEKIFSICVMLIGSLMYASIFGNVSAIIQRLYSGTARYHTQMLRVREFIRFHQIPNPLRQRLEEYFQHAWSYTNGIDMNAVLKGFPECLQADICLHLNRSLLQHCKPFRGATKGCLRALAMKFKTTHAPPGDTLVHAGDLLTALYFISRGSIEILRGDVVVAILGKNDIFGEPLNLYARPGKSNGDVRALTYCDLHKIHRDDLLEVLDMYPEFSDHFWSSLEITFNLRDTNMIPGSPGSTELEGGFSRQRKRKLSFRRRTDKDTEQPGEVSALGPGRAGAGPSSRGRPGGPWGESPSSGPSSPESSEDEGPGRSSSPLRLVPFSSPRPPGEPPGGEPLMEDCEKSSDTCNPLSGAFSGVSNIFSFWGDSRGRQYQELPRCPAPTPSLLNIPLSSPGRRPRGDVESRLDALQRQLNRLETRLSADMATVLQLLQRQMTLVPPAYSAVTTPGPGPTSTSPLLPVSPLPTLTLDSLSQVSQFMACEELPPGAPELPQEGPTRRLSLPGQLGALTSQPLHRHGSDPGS

As usually defined, the AC50 is the midpoint of the concentration-response curve, whichever way the signal moves. Regarding `CC(=O)OC(C)C[N+](C)(C)C` (stereo not given) [METHACHOLINE], the AC50 is greater than 30 µM on Progesterone receptor; greater than 30 µM at Prothrombin; greater than 30 µM on D(1A) dopamine receptor; greater than 30 µM in assay [1]; greater than 30 µM at D(3) dopamine receptor; 0.824 µM at Thromboxane A2 receptor. In addition, the AC50 (at Adenosine receptor A3; in [2]; in [3]; in [4]; at Histamine H3 receptor) was greater than 30 µM throughout.
With `O=C(O)c1cccc(-c2noc(-c3ccccc3F)n2)c1`, the AC50 (on Progesterone receptor; on Prothrombin; on D(1A) dopamine receptor; in [1]; on D(3) dopamine receptor; at Thromboxane A2 receptor) was greater than 30 µM each time. Further, the AC50 (on Adenosine receptor A3; in assay [2]; in [3]; in assay [4]; at Histamine H3 receptor) was greater than 30 µM throughout.
As to `C[C@@H]1O[C@@H](OC[C@H]2O[C@@H](Oc3c(-c4ccc(OCCO)c(OCCO)c4)oc4cc(OCCO)cc(O)c4c3=O)[C@H](O)[C@@H](O)[C@@H]2O)[C@H](O)[C@H](O)[C@H]1O` [TROXERUTIN], the AC50 (on Progesterone receptor; on Prothrombin; on D(1A) dopamine receptor; in assay [1]; on D(3) dopamine receptor; on Thromboxane A2 receptor) was greater than 30 µM throughout. Besides, the AC50 on Adenosine receptor A3 was 7.52 µM; in [2] it was greater than 30 µM; in [3] it was greater than 30 µM; in [4] it was greater than 30 µM; on Histamine H3 receptor it was greater than 30 µM.
With `CCC(Cc1c(I)cc(I)c(N)c1I)C(=O)O` (stereo not given) [IOPANOIC ACID], the AC50 (at Progesterone receptor; on Prothrombin; at D(1A) dopamine receptor; in [1]; at D(3) dopamine receptor; on Thromboxane A2 receptor) was greater than 30 µM throughout. The AC50 (on Adenosine receptor A3; in assay [2]; in assay [3]; in assay [4]; at Histamine H3 receptor) was greater than 30 µM each time.
With `C[C@@H]1C[C@H]2[C@@H]3C[C@H](F)C4=CC(=O)C=C[C@]4(C)[C@@]3(F)[C@@H](O)C[C@]2(C)[C@@]1(O)C(=O)COC(=O)C(C)(C)C` [FLUMETHASONE PIVALATE], the AC50 on Progesterone receptor is 5.85 µM; on Prothrombin, greater than 30 µM; on D(1A) dopamine receptor it was greater than 30 µM; in assay [1], greater than 30 µM; at D(3) dopamine receptor, greater than 30 µM; at Thromboxane A2 receptor it was greater than 30 µM. For the same compound, the AC50 (at Adenosine receptor A3; in assay [2]; in assay [3]; in [4]; at Histamine H3 receptor) was greater than 30 µM each time.
For the compound `CCCC1C(=O)N2C(N(C)C)=Nc3ccc(C)cc3N2C1=O` (stereo not given) [APAZONE], the AC50 (at Progesterone receptor; at Prothrombin; on D(1A) dopamine receptor; in assay [1]; at D(3) dopamine receptor; on Thromboxane A2 receptor) was greater than 30 µM each time. In addition, the AC50 at Adenosine receptor A3 was 3.84 µM; in assay [2], greater than 30 µM; in assay [3] it was greater than 30 µM; in [4], greater than 30 µM; on Histamine H3 receptor, greater than 30 µM.
Take `CCC1(c2cccc(O)c2)CCCCN(C)C1` (stereo not given) [MEPTAZINOL]: the AC50 (on Progesterone receptor; at Prothrombin; on D(1A) dopamine receptor; in assay [1]; at D(3) dopamine receptor; on Thromboxane A2 receptor) was greater than 30 µM each time. Moreover, the AC50 at Adenosine receptor A3 is greater than 30 µM; in [2], greater than 30 µM; in assay [3] it was 13.5 µM; in [4], greater than 30 µM; on Histamine H3 receptor, greater than 30 µM.
For the compound `CC[C@@H]1/C=C(\C)C[C@H](C)C[C@H](OC)[C@H]2O[C@@](O)(C(=O)C(=O)N3CCCC[C@H]3C(=O)O[C@H](/C(C)=C/[C@@H]3CC[C@H](Cl)[C@H](OC)C3)[C@H](C)[C@@H](O)CC1=O)[C@H](C)C[C@@H]2OC` [PIMECROLIMUS], the AC50 (at Progesterone receptor; at Prothrombin; on D(1A) dopamine receptor; in [1]; on D(3) dopamine receptor; at Thromboxane A2 receptor) was greater than 30 µM in each case. Moreover, the AC50 on Adenosine receptor A3 was 5.19 µM; in assay [2], greater than 30 µM; in assay [3], greater than 30 µM; in assay [4] it was greater than 30 µM; at Histamine H3 receptor it was greater than 30 µM.
Regarding `CC(C(=O)O)c1ccc2c(c1)Cc1cccnc1O2` (stereo not given) [PRANOPROFEN], the AC50 (on Progesterone receptor; on Prothrombin; on D(1A) dopamine receptor; in assay [1]; on D(3) dopamine receptor; at Thromboxane A2 receptor) was greater than 30 µM each time. Further, the AC50 on Adenosine receptor A3 was greater than 30 µM; in [2], greater than 30 µM; in assay [3], greater than 10 µM; in assay [4], greater than 30 µM; on Histamine H3 receptor, greater than 30 µM.
Consider `Nc1ccc(C(=O)O)cc1` [AMINOBENZOIC ACID], for which the AC50 (on Progesterone receptor; on Prothrombin; at D(1A) dopamine receptor; in [1]; at D(3) dopamine receptor; on Thromboxane A2 receptor) was greater than 30 µM in each case. The AC50 (at Adenosine receptor A3; in [2]; in assay [3]; in assay [4]; at Histamine H3 receptor) was greater than 30 µM in each case.
